ChEMBL document CHEMBL4190358, “Bruton's Tyrosine Kinase Inhibitors for the Treatment of Autoimmune Diseases and Cancers” (ACS Med Chem Lett, 2017)

Target: Tyrosine-protein kinase BTK (Homo sapiens, UniProt Q06187)
Assay: Inhibition of BTK (unknown origin) using peptide substrate after 1 hr by HTRF assay

Sequence of Tyrosine-protein kinase BTK (Q06187 whole entry): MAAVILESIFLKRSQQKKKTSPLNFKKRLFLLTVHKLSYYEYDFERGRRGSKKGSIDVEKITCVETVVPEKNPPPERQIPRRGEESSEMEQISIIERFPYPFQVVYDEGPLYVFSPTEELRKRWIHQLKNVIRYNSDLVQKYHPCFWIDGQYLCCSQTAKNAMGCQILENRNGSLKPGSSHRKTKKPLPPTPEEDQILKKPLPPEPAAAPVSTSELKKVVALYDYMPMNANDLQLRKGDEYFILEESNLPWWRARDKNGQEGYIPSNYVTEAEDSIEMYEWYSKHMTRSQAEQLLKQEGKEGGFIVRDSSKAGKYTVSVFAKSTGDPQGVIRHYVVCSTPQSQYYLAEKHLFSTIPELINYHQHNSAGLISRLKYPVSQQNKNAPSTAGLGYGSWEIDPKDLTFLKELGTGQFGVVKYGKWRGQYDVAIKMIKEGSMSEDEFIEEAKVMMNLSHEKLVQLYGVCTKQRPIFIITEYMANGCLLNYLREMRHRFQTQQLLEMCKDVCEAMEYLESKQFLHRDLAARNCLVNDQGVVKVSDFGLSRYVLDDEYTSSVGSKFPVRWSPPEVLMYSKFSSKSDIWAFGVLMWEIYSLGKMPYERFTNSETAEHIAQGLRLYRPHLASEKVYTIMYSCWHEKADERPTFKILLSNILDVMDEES

| SMILES | IC50 |
| --- | --- |
| C=CC(=O)N1CC[C@@H](n2nc(-c3ccc(Oc4cccc(OC)c4C)cc3)c3cnccc32)C1 | 10 to 100 nM |
| CC#CC(=O)N1CCC[C@@H](n2nc(-c3ccc(C(=O)Nc4ccccn4)cc3)c3cnccc32)C1 | 100 to 1000 nM |
| COc1cccc(Oc2ccc(-c3nn([C@@H]4CCCN(C(=O)OC(C)(C)C)C4)c4c(OC)cncc34)cc2)c1F | ≤ 10 nM |
| C=CC(=O)N1CC[C@@H](n2nc(-c3ccc(Sc4cccc(F)c4)cc3)c3cnccc32)C1 | ≤ 10 nM |
| C=CC(=O)N1CCC[C@@H](n2nc(-c3ccc(Oc4cccc(Cl)c4)cc3)c3cnccc32)C1 | 10 to 100 nM |
| O=C(Nc1ccc(-c2nn(C3CCC(C(=O)O)CC3)c3ccncc23)cc1)c1ccccc1 (configuration not stated) | ≥ 10000 nM |
| C=CC(=O)N1CC[C@@H](n2nc(-c3ccc(Oc4cccc(OC)c4F)cc3)c3c2CCN(C(C)=O)C3)C1 | 1000 to 10000 nM |
| C=CC(=O)N1CCC[C@@H](n2nc(-c3ccc(Oc4ccccc4)cc3)c3cnccc32)C1 | ≤ 10 nM |

The remaining lines, values ahead:

| IC50 | SMILES |
| --- | --- |
| ≤ 10 nM | C=CC(=O)N1CCC[C@H](n2nc3ccncc3c2-c2ccc(Oc3cccc(Cl)c3Cl)cc2)C1 |
| ≤ 10 nM | C=CC(=O)N1CC[C@@H](n2nc(-c3ccc(Oc4cccc(OC)c4Cl)cc3)c3cnccc32)C1 |
| ≤ 10 nM | C=CC(=O)N1CC[C@H](n2nc3ccncc3c2-c2ccc(Oc3cccc(Cl)c3Cl)cc2)C1 |
| 100 to 1000 nM | C=CC(=O)N1CCC[C@@H](n2nc(-c3ccc(Oc4cccc(OC)c4F)cc3)c3cncc(OC)c32)C1 |
